We go through 35 molecules from US8962674B2 (Tokyo Institute of Technology, priority 2006, dated 2015).

In data set [1] the target is recombinant human β-secretase (rhBACE-1) (Homo sapiens (Human), UniProt P56817). In words: β-Secretase enzyme inhibition assay (Test Example 1). Particulars: compound solution 3 μM (FIG. 1 legend: 1.0 μM), 37° C., 2 hr, fluorescent substrate peptide. It counts as biochemical. Here is the method: β-Secretase Enzyme Inhibition Assay
Compounds were dissolved in dimethylsulfoxide (DMSO), and further diluted in 0.1 M sodium acetate buffer (with 150 mM sodium chloride, pH 4.5). The solution with no compound was used as a negative control. Then, 100 μL of these solutions (compound concentration: 3 μM), 1 μL of recombinant human β-secretase (rhBACE-1, R&D), and 5 μL of the fluorescent substrate peptide were mixed in a black 96-well plate (Nunc). After mixtures were incubated in the dark at 37° C. for 2 hr, the fluorescence intensities of the mixtures were measured by fluorescence microplate reader (Wallac) at 540 nm for excitation and at 590 nm for emission. The inhibition ratio was calculated as a percentage of the negative control. The sequence of the peptide was […] and labeled with fluorescent donor (Cy3) at Ser-1 and with quencher (Cy5Q) at Lys-9, respectively (Invitrogen).

recombinant human β-secretase (rhBACE-1), sequence (P56817 46-501): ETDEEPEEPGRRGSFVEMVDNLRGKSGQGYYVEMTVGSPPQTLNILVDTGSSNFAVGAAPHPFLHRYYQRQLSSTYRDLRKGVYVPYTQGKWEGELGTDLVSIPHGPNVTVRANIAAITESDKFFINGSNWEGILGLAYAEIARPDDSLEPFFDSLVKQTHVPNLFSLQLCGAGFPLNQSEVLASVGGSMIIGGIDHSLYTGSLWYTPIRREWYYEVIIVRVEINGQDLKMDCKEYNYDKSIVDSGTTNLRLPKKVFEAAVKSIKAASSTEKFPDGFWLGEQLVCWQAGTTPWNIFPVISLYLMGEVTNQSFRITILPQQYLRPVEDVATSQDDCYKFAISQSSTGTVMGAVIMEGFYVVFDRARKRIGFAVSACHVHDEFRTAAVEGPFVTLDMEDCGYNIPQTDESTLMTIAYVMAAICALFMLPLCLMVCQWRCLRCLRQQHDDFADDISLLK

`O=C(/C=C/c1ccc(O)cc1)CC(=O)/C=C/c1cccc2ccccc12` [CU112, (1E,6E)-1-(4-hydroxyphenyl)-7-(naphthalen-1-yl)hepta-1,6-diene-3,5-dione]: in data set [1], the “inhibition of BACE-1 enzyme activity (inhibitory activities (%) shown in FIG. 1)” value is listed as “strongly inhibited”. Same read-out and setting: then `COc1ccc(/C=C/C(=O)CC(=O)/C=C/c2cccn2C)cc1O` [CU122, (1E,6E)-1-(3-hydroxy-4-methoxyphenyl)-7-(1-methyl-1H-pyrrol-2-yl)hepta-1,6-diene-3,5-dione], with “strongly inhibited”. Still for that read-out and setting: with `COc1cc(/C=C/C(=O)CC(=O)/C=C/c2ccc3cc[nH]c3c2)ccc1O` [CU190, (1E,6E)-1-(4-hydroxy-3-methoxyphenyl)-7-(1H-indol-6-yl)hepta-1,6-diene-3,5-dione] the entry was “strongly inhibited”; with `Cn1cc(/C=C/C(=O)CC(=O)/C=C/c2ccc(O)cc2)cn1` [CU198, (1E,6E)-1-(4-hydroxyphenyl)-7-(1-methyl-1H-pyrrazol-4-yl)hepta-1,6-diene-3,5-dione], “strongly inhibited”.

In the case of `CC(C)(C)OC(=O)N1CCN(c2ccccc2/C=C/C(=O)CC(=O)/C=C/c2ccc(O)cc2)CC1` [CU499, (1E,6E)-1-{2-[4-(tert-butoxycarbonyl)piperazin-1-yl]phenyl}-7-(4-hydroxyphenyl)hepta-1,6-diene-3,5-dione], the melting point (usually the temperature, or range, at which the solid turns liquid) is 115 to 121 °C. On the same count and under the same terms, with `CS(=O)(=O)N1CCN(c2ccccc2/C=C/C(=O)CC(=O)/C=C/c2ccc(O)cc2)CC1` [CU500, (1E,6E)-1-(4-hydroxyphenyl)-7-{2-[4-(methylsulfonyl)piperazin-1-yl]phenyl}hepta-1,6-diene-3,5-dione] the figure was 126 to 131 °C; with `O=C(/C=C/c1ccc(O)cc1)CC(=O)/C=C/c1ccccc1N1CCN(CCO)CC1` [CU501, (1E,6E)-1-{2-[4-(2-hydroxyethyl)piperazin-1-yl]phenyl}-7-(4-hydroxyphenyl)hepta-1,6-diene-3,5-dione], 102 to 110 °C. For the molecule `O=C(/C=C/c1ccc(O)cc1)CC(=O)/C=C/c1ccc(Br)cc1N1CCN(CCO)CC1` [CU502, (1E,6E)-1-{4-bromo-2-[4-(2-hydroxyethyl)piperazin-1-yl]phenyl}-7-(4-hydroxyphenyl)hepta-1,6-diene-3,5-dione], the melting point lay within 127 to 133 °C.

Molecule `O=C(/C=C/c1ccc(O)cc1)CC(=O)/C=C/c1ccc2ccccc2c1-c1ccccc1` [CU503, (1E,6E)-1-(4-hydroxyphenyl)-7-(1-phenylnaphthalen-2-yl)hepta-1,6-diene-3,5-dione] returned a melting point of 218 to 222 °C. On the same count and under the same terms, with `O=C(/C=C/c1ccc(O)cc1)CC(=O)/C=C/c1cccc(-c2ccccc2)c1` [CU504, (1E,6E)-1-(biphenyl-3-yl)-7-(4-hydroxyphenyl)hepta-1,6-diene-3,5-dione] the figure was 176 to 182 °C.

In the case of `CCn1c2ccccc2c2cc(CCC(=O)CC(=O)CCc3ccc(OC)c(O)c3)ccc21` [CU508, 1-(9-ethyl-9H-carbazol-3-yl)-7-(3-hydroxy-4-methoxyphenyl)heptane-3,5-dione], the melting point lay within 97 to 100 °C. Molecule `COc1ccc(O)cc1CCC(=O)CC(=O)CCc1cc(O)ccc1OC` [CU512, 1,7-bis(5-hydroxy-2-methoxyphenyl)heptane-3,5-dione] showed a melting point of 163 to 169 °C.

For the molecule `O=C(/C=C/c1ccc(O)cc1)CC(=O)/C=C/c1ccccc1-c1cccnc1` [CU513, (1E,6E)-1-(4-hydroxyphenyl)-7-[2-(pyridin-3-yl)phenyl]hepta-1,6-diene-3,5-dione], the melting point fell in the range of 180 to 189 °C. Still for that read-out and setting: with `O=C(/C=C/c1ccc(O)cc1)CC(=O)/C=C/c1ccccc1-c1ccncc1` [CU514, (1E,6E)-1-(4-hydroxyphenyl)-7-[2-(pyridin-4-yl)phenyl]hepta-1,6-diene-3,5-dione] the figure was 249 to 256 °C; with `COc1cc(O)ccc1/C=C/C(=O)CC(=O)CCc1ccc(O)cc1` [CU517, (E)-1-(4-hydroxy-2-methoxyphenyl)-7-(4-hydroxyphenyl)hept-1-ene-3,5-dione], 131 to 135 °C.

`CN(C)c1ccc(/C=C/C(=O)CC(=O)CCc2ccc(O)cc2)c2ccccc12` [CU518, (E)-1-(4-dimethylaminonaphthalen-1-yl)-7-(4-hydroxyphenyl)hept-1-ene-3,5-dione] returned a melting point of 44 to 49 °C. Still for that read-out and setting: then `CN(C)c1ccc(/C=C/C(=O)CC(=O)CCc2ccc(O)cc2)c([N+](=O)[O-])c1` [CU523, (E)-1-(4-dimethylamino-2-nitrophenyl)-7-(4-hydroxyphenyl)hept-1-ene-3,5-dione], with 136 to 142 °C; and `CN(C)c1ccc(/C=C/C(=O)CC(=O)CCc2ccc(O)cc2)c(Cl)c1` [CU524, (E)-1-(2-chloro-4-dimethylaminophenyl)-7-(4-hydroxyphenyl)hept-1-ene-3,5-dione], with 120 to 129 °C. The molecule `O=C(/C=C/c1ccc(O)cc1)CC(=O)/C=C/c1cc(O)ccc1-c1ccccc1` [CU526, (1E,6E)-1-(4-hydroxybiphenyl-2-yl)-7-(4-hydroxyphenyl)hepta-1,6-diene-3,5-dione] displayed a melting point of 179 to 186 °C. Same read-out and setting: then `O=C(/C=C/c1ccc(O)cc1)CC(=O)/C=C/c1cc(OCc2ccccc2)ccc1-c1ccccc1` [CU527, (1E,6E)-1-(4-benzyloxybiphenyl-2-yl)-7-(4-hydroxyphenyl)hepta-1,6-diene-3,5-dione], with 172 to 178 °C; and `O=C(/C=C/c1ccc(O)cc1)CC(=O)/C=C/c1ccccc1-c1cccc2ccccc12` [CU528, (1E,6E)-1-(4-hydroxyphenyl)-7-[2-(naphthalen-1-yl)phenyl]hepta-1,6-diene-3,5-dione], with 95 to 101 °C. Same read-out and setting: then `O=C(/C=C/c1ccc(O)cc1)CC(=O)/C=C/c1ccccc1-c1ccc2ccccc2c1` [CU529, (1E,6E)-1-(4-hydroxyphenyl)-7-[2-(naphthalen-2-yl)phenyl]hepta-1,6-diene-3,5-dione], with 105 to 114 °C; and `CN(C)c1cc(Br)ccc1/C=C/C(=O)CC(=O)/C=C/c1ccc(O)cc1` [CU533, (1E,6E)-1-(4-bromo-2-dimethylaminophenyl)-7-(4-hydroxyphenyl)hepta-1,6-diene-3,5-dione], with 74 to 81 °C; and `CN(C)c1ccc(Br)cc1/C=C/C(=O)CC(=O)/C=C/c1ccc(O)cc1` [CU534, (1E,6E)-1-(5-bromo-2-dimethylaminophenyl)-7-(4-hydroxyphenyl)hepta-1,6-diene-3,5-dione], with 68 to 72 °C. The same measure, in the same setting: then `CN(C)c1ccc(C(F)(F)F)cc1/C=C/C(=O)CC(=O)/C=C/c1ccc(O)cc1` [CU535, (1E,6E)-1-(2-dimethylamino-5-trifluoromethylphenyl)-7-(4-hydroxyphenyl)hepta-1,6-diene-3,5-dione], with 68 to 74 °C; and `CN(C)c1cc(-c2ccccc2)ccc1/C=C/C(=O)CC(=O)/C=C/c1ccc(O)cc1` [CU536, (1E,6E)-1-(3-dimethylaminobiphenyl-4-yl)-7-(4-hydroxyphenyl)hepta-1,6-diene-3,5-dione], with 83 to 88 °C; and `CN(C)c1ccc(-c2ccccc2)cc1/C=C/C(=O)CC(=O)/C=C/c1ccc(O)cc1` [CU537, (1E,6E)-1-(4-dimethylaminobiphenyl-3-yl)-7-(4-hydroxyphenyl)hepta-1,6-diene-3,5-dione], with 82 to 88 °C. With `O=C(/C=C/c1ccc(O)cc1)CC(=O)/C=C/c1cc(O)ccc1-c1cccc2ccccc12` [CU538, (1E,6E)-1-[5-hydroxy-2-(naphthalen-1-yl)phenyl]-7-(4-hydroxyphenyl)hepta-1,6-diene-3,5-dione], the melting point fell in the range of 215 to 221 °C. Still for that read-out and setting: then `COc1cc(/C=C/C(=O)CC(=O)/C=C/c2ccc(O)cc2)c(Br)cc1O` [CU539, (1E,6E)-1-(2-bromo-4-hydroxy-5-methoxyphenyl)-7-(4-hydroxyphenyl)hepta-1,6-diene-3,5-dione], with 237 to 242 °C; and `O=C(/C=C/c1cc(O)ccc1-c1ccccc1)CC(=O)CCc1ccc(O)cc1` [CU541, (E)-1-(4-hydroxybiphenyl-2-yl)-7-(4-hydroxyphenyl)hept-1-ene-3,5-dione], with 148 to 158 °C. The same measure, in the same setting: with `O=C(/C=C/c1cc(O)ccc1-c1cccc2ccccc12)CC(=O)CCc1ccc(O)cc1` [CU542, (E)-1-[5-hydroxy-2-(naphthalen-1-yl)phenyl]-7-(4-hydroxyphenyl)hept-1-ene-3,5-dione] the figure was 138 to 142 °C; with `COc1cc(Br)c(/C=C/C(=O)CC(=O)/C=C/c2ccc(O)cc2)cc1O` [CU543, (1E,6E)-1-(2-bromo-5-hydroxy-4-methoxyphenyl)-7-(4-hydroxyphenyl)hepta-1,6-diene-3,5-dione], 224 to 229 °C.

`O=C(/C=C/c1ccc(O)cc1)CC(=O)/C=C/c1cc(O)c(Br)cc1Br` [CU544, (1E,6E)-1-(2,4-dibromo-5-hydroxyphenyl)-7-(4-hydroxyphenyl)hepta-1,6-diene-3,5-dione]: the melting point is 255 to 259 °C. The same measure, in the same setting: then `O=C(/C=C/c1ccc(O)c(Cl)c1)CC(=O)CCc1ccc(O)cc1` [CU546, (E)-1-(3-chloro-4-hydroxyphenyl)-7-(4-hydroxyphenyl)hept-1-ene-3,5-dione], with 45 to 51 °C; and `O=C(/C=C/c1cc(O)ccc1Br)CC(=O)CCc1ccc(O)cc1` [CU549, (E)-1-(2-bromo-5-hydroxyphenyl)-7-(4-hydroxyphenyl)hept-1-ene-3,5-dione], with 161 to 165 °C.
